# Test results reported in paper PMC5936756, “Ionizing Radiation Induces Morphological Changes and Immunological Modulation of Jurkat Cells” (Frontiers in Immunology, 2018).
# Legend:
# [1] = system: Jurkat cells; experiment: Determination of cell diameter of Jurkat cells (EVE automatic cell counter); type: cell-based, human
# Method: Cell diameters were measured with an EVE automatic cell counter (NanoEnTek, Seoul, South Korea). For cell diameter studies, a suitable protocol for Jurkat cells was established and all measurements were validated by visual inspection and if necessary corrected by hand using a personal computer based software. Viability was estimated by using trypan blue exclusion assays.
# Cells were exposed to X-ray irradiation in cell culture flasks using an Isovolt 160 Titan E source with a voltage of 90 kV and 33.7 mA (GE Sensing & Inspection Technologies, Alzenau, Germany). Doses were delivered at a 30 cm source to probe distance with cell culture flasks placed on a 2 mm aluminum sheet. CDK1-inhibitor RO3306 (Axon Medchem, Groningen, Netherlands) was dissolved in DMSO at 14.2 mM and added to the cell culture medium in a final concentration of 3 µM. Cyclosporin A (Sigma-Aldrich) was dissolved in ddH2O and added to the cell culture medium of non-irradiated control cells or directly after irradiation of cells in a concentration of 1 µM. The cell permeable Ca^2+ buffer BAPTA-AM [1,2-Bis(2-aminophenoxy)ethane-N,N,N',N'-tetraacetic acid tetrakis(acetoxymethyl) ester, Thermo Fisher] was added to the cell culture medium 30 min prior to cell irradiation at 50 µM and was removed immediately after irradiation. Phytohemagglutinin (PHA-L) was purchased from Biochrom (Berlin, Germany). Cells were treated for 48 h by adding PHA-L to the cell culture medium at a concentration of 7.2 µg/ml. To activate human T-cells ImmunoCult™ Human CD3/CD28/CD2 T Cell Activator (Stem cell Technologies, Vancouver, BC, Canada) was added to the cell culture medium (25 µL per 1 mL of cell suspension) and maintained at 37°C and 5% CO2 for 48 h. The KCa2.2-specific ion channel blocker Tamapin was purchased from Alomone Labs (Jerusalem, Israel) and dissolved in purified water and diluted in external solution for patch clamp experiments.
# [2] = system: Jurkat cells; experiment: Cell cycle analysis by flow cytometry (PI DNA content, cells in G2); type: cell-based, human; conditions: non-irradiated Jurkat cells, 3 µM RO3306
# Method: (§1) Cells were exposed to X-ray irradiation in cell culture flasks using an Isovolt 160 Titan E source with a voltage of 90 kV and 33.7 mA (GE Sensing & Inspection Technologies, Alzenau, Germany). Doses were delivered at a 30 cm source to probe distance with cell culture flasks placed on a 2 mm aluminum sheet. CDK1-inhibitor RO3306 (Axon Medchem, Groningen, Netherlands) was dissolved in DMSO at 14.2 mM and added to the cell culture medium in a final concentration of 3 µM. Cyclosporin A (Sigma-Aldrich) was dissolved in ddH2O and added to the cell culture medium of non-irradiated control cells or directly after irradiation of cells in a concentration of 1 µM. The cell permeable Ca^2+ buffer BAPTA-AM [1,2-Bis(2-aminophenoxy)ethane-N,N,N',N'-tetraacetic acid tetrakis(acetoxymethyl) ester, Thermo Fisher] was added to the cell culture medium 30 min prior to cell irradiation at 50 µM and was removed immediately after irradiation. […]
# Flow cytometric analyses were performed after 48 h following irradiation with propidium iodide (PI) solution (4% PI stock, 0.5 mg/ml PI, 38 mM sodium citrate, pH 7), 5% RNAse A stock (RNAse A 5 mg/ml, Tris–HCl 10 mM, NaCl 15 mM, pH 7) using a BioRad S3 Cell Sorter and the FlowJo 10 software for analysis (FlowJo LLC). The percentage of cells in G2/M phases was determined by single-parameter histograms of DNA content.
# [3] = system: peripheral blood lymphocytes (PBL); experiment: Determination of cell diameter of PBL after mitogen stimulation; type: cell-based, human; conditions: PHA-L 7.2 µg/ml, 48 h
# Method: Jurkat cells (ACC 282) were purchased from the German Collection of Microorganisms and Cell Cultures (DSMZ, Braunschweig, Germany). The human EC line EA.hy926 (Crl-2922) was established by fusion of human umbilical vein ECs and the adenocarcinoma epithelial cell line A549 ([18]) and was purchased from ATCC (LGC Standards, Wesel, Germany). Cells were either grown in RPMI 1640 medium (Jurkat), supplemented with 10% heat inactivated fetal calf serum (FCS; PAA, Cölbe, Germany) and 2 mM L-glutamine or in Dulbecco’s modified Eagle’s medium (Invitrogen, Karlsruhe, Germany), supplemented with 10% FCS 50 U/ml penicillin and 5 µg/ml streptomycin (Sigma-Aldrich, Munich, Germany). PBL were isolated from buffy coats using density gradient centrifugation (Biochrom, Berlin, Germany). After centrifugation (40 min at 1,000 × g, RT) interphase cells were isolated, washed twice with PBS, and pelleted by centrifugation (300 × g, 10 min). For adhesion assays, Jurkat cells and PBL were biotinylated by incubation (15 min on ice) with a biotin-N-hydroxysuccinimid ester (NHS-biotin, 10 mg/ml, Sigma-Aldrich) and maintained in RPMI 1640 Medium with 20% FCS, 1% HEPES, and 1% penicillin/streptomycin prior to assays. […]
# Cell diameters were measured with an EVE automatic cell counter (NanoEnTek, Seoul, South Korea). […]
# [4] = system: KCa2.2 channels; conditions: cited from earlier work
# [5] = target: T1, KCa2.2 channels (Homo sapiens, UniProt Q9H2S1); experiment: Whole cell patch clamp recording of background current Ib in Jurkat cells; type: cell-based; conditions: Tamapin 10 nM
# T1 construct: This small current includes, among others, the voltage independent small conductance K^+ channel KCa2.2; endogenous in cells; host or cells: Jurkat cells (ACC 282, DSMZ)
# Method: as §1, with “irradiation. Phytohemagglutinin (PHA-L) was purchased from Biochrom (Berlin, Germany). Cells were treated for 48 h by adding PHA-L to the cell culture medium at a concentration of 7.2 µg/ml.” for “irradiation.”
# Membrane currents of cells were recorded in a whole cell configuration ([26]) using an EPC-9 amplifier (HEKA Electronics, Lambrecht, Germany). […] Currents were recorded and data analyzed with an EPC-9 amplifier and Patchmaster Software (all from Heka Electronic).
# T1 sequence (Q9H2S1 whole entry): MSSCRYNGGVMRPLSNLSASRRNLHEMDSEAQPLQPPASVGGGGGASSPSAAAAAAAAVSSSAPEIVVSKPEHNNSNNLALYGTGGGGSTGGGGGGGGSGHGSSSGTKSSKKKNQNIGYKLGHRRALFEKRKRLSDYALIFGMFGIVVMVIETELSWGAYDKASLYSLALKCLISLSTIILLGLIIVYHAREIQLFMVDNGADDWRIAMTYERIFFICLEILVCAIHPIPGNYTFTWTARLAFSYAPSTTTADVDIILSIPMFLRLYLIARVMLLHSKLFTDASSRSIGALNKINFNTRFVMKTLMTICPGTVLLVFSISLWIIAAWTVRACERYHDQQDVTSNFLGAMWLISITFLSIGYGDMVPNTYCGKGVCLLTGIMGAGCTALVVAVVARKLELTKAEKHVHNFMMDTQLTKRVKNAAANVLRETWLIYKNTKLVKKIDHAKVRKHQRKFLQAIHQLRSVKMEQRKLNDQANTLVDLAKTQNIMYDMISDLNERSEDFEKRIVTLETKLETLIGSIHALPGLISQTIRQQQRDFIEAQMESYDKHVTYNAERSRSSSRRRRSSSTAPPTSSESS
molecule,measurement,setting,value
"CC(=O)OCOC(=O)CN(CC(=O)OCOC(C)=O)c1ccccc1OCCOc1ccccc1N(CC(=O)OCOC(C)=O)CC(=O)OCOC(C)=O [BAPTA-AM, 1,2-Bis(2-aminophenoxy)ethane-N,N,N',N'-tetraacetic acid tetrakis(acetoxymethyl) ester]",effect on radiation-induced increase in cell diameter,"[1]; Jurkat cells irradiated with 2 Gy, cyclosporine A 1 µM or BAPTA-AM 50 µM",decreased the effect of irradiation
same,reduction of the radiation-induced cell diameter increase,"[1]; irradiated Jurkat cells, cyclosporine A 1 µM or BAPTA-AM 50 µM",50%
O=C1NC(=NCc2cccs2)S/C1=C\c1ccc2ncccc2c1 [RO3306],cells arrested in G2 phase,[2],71%
same,increase in cell diameter,"[1]; non-irradiated Jurkat cells, 3 µM RO3306",9.6 ± 3%
Phytohemagglutinin [PHA-L],fraction of cells with increased mean size,"[3]; PBL from healthy donors, fit with two Gaussians",45%
same,mean size (diameter) of the enlarged cell population,"[3]; PBL, mock treated 7.2 µm",10.2 µm
"Tamapin: scorpion toxin, KCa2.2-specific ion channel blocker (Alomone Labs) (AFCNLRRCELSCRSLGLLGKCIGEECKCVPY; UniProt P59869 1-31, looked up)",IC50,[4],0.024 nM
same,inhibition of Ib,"[5]; irradiated Jurkat cells (1.25 Gy, 48 h after X-ray)",23 ± 10%
same,inhibition of Ib,"[5]; mock-irradiated control Jurkat cells, N = 3",3.3 ± 0.7%
